From patent US6716987B1, “Derivatives of benzofuran or benzodioxazole compounds” (Kyowa Hakko Kogyo Co., Ltd., priority 1995, dated 2004) come the findings set out here.

Structures are written as SMILES.

Data set [1] has as its system cAMP-specific phosphodiesterase (PDE IV). Put plainly: Inhibition of the PDE IV enzyme derived from a dog trachea. It is filed as biochemical. The note with it: test compound 10^−6 M; PDE IV from dog tracheal smooth muscle; substrate cAMP 1 μM. The protocol: cAMP-specific phosphodiesterase (PDE IV) was purified from a dog tracheal smooth muscle according to the method of Torphy et al. [Molecular Pharmacol., 37, 206-214 (1990)]. The PDE activity was measured by the following two steps according to the method of Kincaid and Manganiello et al. [Method in Enzymology (J. D. Corbin and R. A. Jonson, Eds.), 199, 457-470 (1988)]. Using [^3]cAMP (at a final concentration of 1 μM) as a substrate, the reaction was carried out in a standard mixture containing N,N-bis(2-hydroxyethyl)-2-aminoethanesulfonic acid (50 mM, pH=7.2), MgCl2 (1 mM), and soybean trypsin inhibitor (0.1 mg/ml). The reaction was initiated by adding the enzyme, followed by incubation at 30° C. for 10 to 30 minutes. After stopping the reaction with hydrochloric acid, the generated […] was completely converted to adenosine by 5′-nucleotidase.
The resultant was subjected to chromatography on DEAE-Sephadex A-25, and radio activity of the eluted [^3H] adenosine was counted using a scintillation counter. Each of the test drugs was dissolved in DMSO (final concentration 1.7%) and then added to the mixture.

For orientation: melting point means the temperature of the solid-liquid transition. In turn, `COc1ccc(C(=O)Nc2c(Cl)cncc2Cl)c2c1OCC2C` (racemic) [Compound 2, (±)-4-[(3,5-Dichloro-4-pyridyl)aminocarbonyl]-7-methoxy-3-methyl-2,3-dihydrobenzofuran] had a melting point of 198 to 200 °C. Besides, in data set [1], the “Enzyme Inhibitory Activity (%, 10^−6 M)” value turned out to be 77%.
The like results for `CCC1COc2c(OC)ccc(C(=O)Nc3c(Cl)cncc3Cl)c21` (racemic) [Compound 3, (±)-4-[(3,5-Dichloro-4-pyridyl)aminocarbonyl]-3-ethyl-7-methoxy-2,3-dihydrobenzofuran] were, in that order, 202 to 204 °C and 75%.
The molecule `COc1ccc(C(=O)Nc2c(Cl)cncc2Cl)c2c1OCC2C(C)C` (racemic) [Compound 4, (±)-4-[(3,5-Dichloro-4-pyridyl)aminocarbonyl]-7-methoxy-3-(2-propyl)-2,3-dihydrobenzofuran] came in with a melting point of 239 to 241 °C. Further, the “Enzyme Inhibitory Activity (%, 10^−6 M)” value in data set [1] is recorded as 53%.
In the same order, the values of `CCOC(=O)CC1COc2c(OC)ccc(C(=O)Nc3c(Cl)cncc3Cl)c21` (racemic) [Compound 5, (±)-4-[(3,5-Dichloro-4-pyridyl)aminocarbonyl]-3-ethoxycarbonylmethyl-7-methoxy-2,3-dihydrobenzofuran] are 186 to 188 °C and 85%.
The like results for `CCOC(=O)CC1COc2c(OC)ccc(C(=O)Nc3ccccc3)c21` (racemic) [Compound 7, (±)-3-Ethoxycarbonylmethyl-7-methoxy-4-phenylaminocarbonyl-2,3-dihydrobenzofuran] were, in that order, 169 to 170 °C and 37%.
In the case of `CCOC(=O)CC1COc2c(OC)ccc(C(=O)NC3CCCCC3)c21` (racemic) [Compound 8, (±)-4-Cyclohexylaminocarbonyl-3-ethoxycarbonylmethyl-7-methoxy-2,3-dihydrobenzofuran], the melting point is 197 to 199 °C. In data set [1], the “Enzyme Inhibitory Activity (%, 10^−6 M)” value is on record as 5%.
`COc1ccc(C(=O)Nc2c(Cl)cncc2Cl)c2c1OCC2CC(=O)O` (racemic) [Compound 9, (±)-3-Carboxymethyl-4-(3,5-dichloro-4-pyridylaminocarbonyl)-7-methoxy-2,3-dihydrobenzofuran] came in with a melting point of 259 to 263 °C. In addition, in data set [1], the “Enzyme Inhibitory Activity (%, 10^−6 M)” value was determined as 22%.
For the molecule `COc1ccc(C(=O)Nc2ccccc2)c2c1OCC2CC(=O)O` (racemic) [Compound 11, (±)-3-Carboxymethyl-7-methoxy-4-phenylaminocarbonyl-2,3-dihydrobenzofuran], the melting point is 248 to 251 °C. Besides, the “Enzyme Inhibitory Activity (%, 10^−6 M)” value in data set [1] is given as 6%.
For the molecule `COc1ccc(C(=O)NC2CCCCC2)c2c1OCC2CC(=O)O` (racemic) [Compound 12, (±)-3-Carboxymethyl-4-cyclohexylaminocarbonyl-7-methoxy-2,3-dihydrobenzofuran], the melting point was in the range of 246 to 247 °C. For the same molecule, the “Enzyme Inhibitory Activity (%, 10^−6 M)” value in data set [1] is 8%.
Regarding `COc1ccc(C(=O)Nc2c(Cl)cncc2Cl)c2c1OCC2CC(=O)OCc1ccccc1` (racemic) [Compound 13, (±)-3-Benzyloxycarbonylmethyl-4-[(3,5-Dichloro-4-pyridyl)aminocarbonyl]-7-methoxy-2,3-dihydrobenzofuran], the melting point lay within 198 to 205 °C. Besides, the “Enzyme Inhibitory Activity (%, 10^−6 M)” value in data set [1] is 94%.
Take `COc1ccc(C(=O)Nc2ccccc2)c2c1OCC2CC(=O)OCc1ccccc1` (racemic) [Compound 15, (±)-3-Benzyloxycarbonylmethyl-7-methoxy-4-phenylaminocarbonyl-2,3-dihydrobenzofuran]: the melting point is 179 to 180 °C. The “Enzyme Inhibitory Activity (%, 10^−6 M)” value in data set [1] is 75%.
The like results for `COc1ccc(C(=O)Nc2c(Cl)cncc2Cl)c2c1OCC2CC(=O)NCc1cccnc1` (racemic) [Compound 18, (±)-4-[(3,5-Dichloro-4-pyridyl)aminocarbonyl]-7-methoxy-3-[(3-pyridylmethyl)aminocarbonyl]methyl-2,3-dihydrobenzofuran] were, in that order, 258 to 261 °C (dec.) and 81%.
In turn, `COc1ccc(C(=O)Nc2c(Cl)cncc2Cl)c2c1OCC2CC(=O)N1CCN(c2ccccc2)CC1` (racemic) [Compound 21, (±)-4-[(3,5-Dichloro-4-pyridyl)aminocarbonyl]-7-methoxy-3-[(4-phenyl-1-piperazinyl)carbonyl]methyl-2,3-dihydrobenzofuran] came in with a melting point of 224 °C. For the same molecule, the “Enzyme Inhibitory Activity (%, 10^−6 M)” value in data set [1] came to 84%.
In turn, `COc1ccc(C(=O)Nc2c(Cl)cncc2Cl)c2c1OCC2CC(=O)NCc1ccccc1` (racemic) [Compound 25, (±)-3-(Benzylaminocarbonyl)methyl-4-[(3,5-dichloro-4-pyridyl)aminocarbonyl]-7-methoxy-2,3-dihydrobenzofuran] gave a melting point of 284 to 286 °C. Besides, in data set [1], the “Enzyme Inhibitory Activity (%, 10^−6 M)” value stood at 84%.
Take `COc1ccc(C(=O)Nc2c(Cl)cncc2Cl)c2c1OCC2CC(=O)Nc1ccccc1` (racemic) [Compound 27, (±)-4-[(3,5-Dichloro-4-pyridyl)aminocarbonyl]-7-methoxy-3-(phenylaminocarbonyl)methyl-2,3-dihydrobenzofuran]: the melting point was 296 to 300 °C (dec.). In addition, in data set [1], the “Enzyme Inhibitory Activity (%, 10^−6 M)” value is given as 75%.
Turning to `COc1ccc(CNC(=O)CC2COc3c(OC)ccc(C(=O)Nc4c(Cl)cncc4Cl)c32)cc1` (racemic) [Compound 28, (±)-4-[(3,5-Dichloro-4-pyridyl)aminocarbonyl]-7-methoxy-3-[(4-methoxybenzyl)aminocarbonyl]methyl-2,3-dihydrobenzofuran], the melting point fell in the range of 269 to 271 °C. Also, in data set [1], the “Enzyme Inhibitory Activity (%, 10^−6 M)” value came to 83%.
In the same order, the values of `COc1ccc(C(=O)Nc2c(Cl)cncc2Cl)c2c1OCC2CC(=O)NCc1ccc(F)cc1` (racemic) [Compound 29, (±)-4-[(3,5-Dichloro-4-pyridyl)aminocarbonyl]-3-[(4-fluorobenzyl)aminocarbonyl]methyl-7-methoxy-2,3-dihydro-benzofuran] are 287 °C and 85%.
With `COc1ccc(C(=O)Nc2c(Cl)cncc2Cl)c2c1OCC2CC(=O)NCc1ccc(Cl)cc1` (racemic) [Compound 30, (±)-3-[(4-Chlorobenzyl)aminocarbonyl]methyl-4-[(3,5-dichloro-4-pyridyl)aminocarbonyl]-7-methoxy-2,3-dihydro-benzofuran], the melting point is 283 to 286 °C. In addition, in data set [1], the “Enzyme Inhibitory Activity (%, 10^−6 M)” value is 85%.
Regarding `COc1ccc(C(=O)Nc2c(Cl)cncc2Cl)c2c1OCC2CC(=O)NCc1ccccc1Cl` (racemic) [Compound 31, (±)-3-[(2-Chlorobenzyl)aminocarbonyl]methyl-4-[(3,5-dichloro-4-pyridyl)aminocarbonyl]-7-methoxy-2,3-dihydro-benzofuran], the melting point lay in the range of 288 to 289 °C. Also, the “Enzyme Inhibitory Activity (%, 10^−6 M)” value in data set [1] is 89%.
As for `COc1ccc(C(=O)Nc2ccncc2)c2c1OC1(CCCC1)CC2.CS(=O)(=O)O` [Compound 124, 8-Methoxy-5-(4-pyridylaminocarbonyl)-spiro[3,4-dihydrobenzopyran-2,1′-cyclopentane].methanesulfonate], the “Enzyme Inhibitory Activity (%, 10^−6 M)” value in data set [1] turned out to be 57%.
On the same count and under the same terms, to `COc1ccc(C=Cc2ccncc2)c2c1OC1(CCCC1)CC2.Cl` [Compound 125, 8-Methoxy-5-[2-(4-pyridyl)ethenyl]-spiro[3,4-dihydrobenzopyran-2,1′-cyclopentane].hydrochloride] belongs 71%.
In the case of `COc1ccc(C=Cc2ccncc2)c2c1OC1(CCCCC1)CC2.Cl` [Compound 126, 8-Methoxy-5-[2-(4-pyridyl)ethenyl]-spiro[3,4-dihydrobenzopyran-2,1′-cyclohexane].hydrochloride], the “Enzyme Inhibitory Activity (%, 10^−6 M)” value in data set [1] is listed as 58%.
`COc1ccc(C(=O)Cc2ccncc2)c2c1OC1(CCCC1)CC2.Cl` [Compound 127, 8-Methoxy-5-[1-oxo-2-(4-pyridyl)ethyl]-spiro[3,4-dihydrobenzopyran-2,1′-cyclopentane].hydrochloride]: the “Enzyme Inhibitory Activity (%, 10^−6 M)” value in data set [1] is listed as 70%.
With `COc1ccc(C(=O)Cc2ccncc2)c2c1OC1(CCCCC1)CC2.Cl` [Compound 128, 8-Methoxy-5-[1-oxo-2-(4-pyridyl)ethyl]-spiro[3,4-dihydrobenzopyran-2,1′-cyclohexane].hydrochloride], the “Enzyme Inhibitory Activity (%, 10^−6 M)” value in data set [1] is given as 62%.
Regarding `COc1ccc(CCc2ccncc2)c2c1OC1(CCCC1)O2.Cl` [Compound 136, 4-Methoxy-7-[2-(4-pyridyl)ethyl]-spiro[1,3-benzodioxole-2,1′-cyclopentane].hydrochloride], the “Enzyme Inhibitory Activity (%, 10^−6 M)” value in data set [1] is recorded as 75%.
As to `COc1ccc(C(Cc2ccncc2)c2ccccc2)c2c1OC1(CCCC1)O2.Cl` (stereo not shown) [Compound 137, 4-Methoxy-7-[1-phenyl-2-(4-pyridyl)ethyl]-spiro[1,3-benzodioxole-2,1′-cyclopentane].hydrochloride], in data set [1], the “Enzyme Inhibitory Activity (%, 10^−6 M)” value is 61%.
For `COc1ccc(C(=Cc2ccncc2)c2ccccc2)c2c1OC1(CCCC1)O2` [Compound 139, 4-Methoxy-7-[1-phenyl-2-(4-pyridyl)ethenyl]-spiro[1,3-benzodioxole-2,1′-cyclopentane]], the “Enzyme Inhibitory Activity (%, 10^−6 M)” value in data set [1] is recorded as 54%.
